Experimental data taken from patent publication US20160039825A1 (BIOGEN MA INC., priority 2013, published 2016).

Target: T1, Human ATX protein (Homo sapiens, UniProt Q13822)
T1 construct: made in house
Assay: Autotaxin (ATX) assay, FRET with FS-3 substrate
Type: biochemical
Conditions: upper bound bins (no greater than 100, 250 or 500 nM); FS-3 2 μM, ATX 1.0 μg/mL
Outline: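 Hydrolysis of the FRET substrate FS-3 (2 μM final) unquenches fluorescein, read at excitation 485 nm and emission 538 nm after 2 h at room temperature, protected from light. Purified human ATX (1.0 μg/mL) and compound were first incubated for 30 min in pH 7.4 Tris/salt buffer containing 1 mg/mL fatty acid-free BSA.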

Row | IC50 [µM] | Structure (SMILES)
1 | ≤ 0.1 | O=C(OCc1cc(C(F)(F)F)cc(C(F)(F)F)c1)N1CCCn2nc(CN3CCC(F)CC3)cc2C1 [Example 510]
2 | ≤ 0.25 | O=C(OCc1cc(C(F)(F)F)cc(C(F)(F)F)c1)N1CCCn2nc(CNC3COC3)cc2C1 [Example 511]
3 | ≤ 0.1 | CC(c1cc2n(n1)CCCN(C(=O)OCc1cc(C(F)(F)F)cc(C(F)(F)F)c1)C2)N1CCC(F)CC1 (stereo not drawn) [Example 512]
4 | ≤ 0.25 | O=C(OCc1cc(C(F)(F)F)cc(C(F)(F)F)c1)N1CCCn2nc(CNC3CC3)cc2C1 [Example 513]
5 | ≤ 0.1 | CN1CCN(C(=O)c2nn3c(c2F)CN(C(=O)OCc2cc(Cl)cc(C(F)(F)F)c2)CCC3)CC1 [Example 515]

Row | Structure (SMILES) | IC50 [µM]
6 | O=C(OCc1cc(C(F)(F)F)cc(C(F)(F)F)c1)N1CCn2nc(C3=CCNCC3)cc2C1 [Example 516] | ≤ 0.1
